According to patent US20100035866A1, “NOVEL SUBSTITUTED-1, 1-DIOXO-BENZO[1,2,4]THIADIAZIN-3ONES, PREPARATION METHOD THEREOF, AND PHARMACEUTICAL COMPOSITION CONTAINING THE SAME” (KOREA RESEARCH INSTITUTE OF CHEMICAL TECHNOLOGY, priority 2006, published 2010):

Columns and labels:
rats [1] = conditions: cited from earlier work
rat = conditions: cited from earlier work; for anticonvulsant activity: earlier finding
hD2L receptor = target: T1, hD2L receptor (Homo sapiens, UniProt P14416); assay: Dopamine receptor family binding: D2 ([3H]spiperone); conditions: [3H]spiperone 1 nM; read-out: Binding affinity, IC50 (nM), D2
T1 construct: purchased BioSignal Packard Inc., Montreal, Canada
Procedure: (§1) 2-2: Binding Assays of Dopamine Receptor Family
(§2) The radioligands used were [^3H]spiperone (for hD2L and hD3 receptors, 1 nM) and [^3H] YM-09151-2 (for hD4.2 receptor, 0.06 nM). Radioligand bindings were performed by the protocols provided by the supplier of receptor membranes (BioSignal Packard Inc., Montreal, Canada). Briefly, the buffer used in D2 or D3 receptor binding assay was 50 mM Tris-HCl (pH 7.4), 10 mM MgCl2, 1 mM EDTA, or 50 mM Tris-HCl (pH 7.4), 5 mM MgCl2 5 mM EDTA, 5 mM KCl, 1.5 mM CaCl2, 120 mM NaCl, respectively. In [^3H] YM-09151-2 receptor binding assays, the buffer containing 50 mM Tris-HCl (pH 7.4), 5 mM MgCl2, 5 mM EDTA, 5 mM KCl and 1.5 mM CaCl2 was used. […] Competition binding studies were carried out with 7-8 concentrations of the test compound run in duplicate tubes, and isotherms from three assays were calculated by computerized nonlinear regression analysis (GraphPad Prism Program, San Diego, […]) to yield median inhibitory concentration (IC50) values.

D1 = D1 (Homo sapiens, UniProt P21728); assay: Dopamine receptor family binding: D1; conditions: read-out: Binding affinity, IC50 (nM), D1
[2] = target: Human serotonin 5-HT6 receptor (Homo sapiens, UniProt P50406); assay: [3H]LSD binding assay on cloned 5-HT6 receptor; conditions: IC50 (nM)
5-HT2a = target: T2, 5-HT2a (Homo sapiens, UniProt P28223); assay: Radioligand binding, 5-HT receptor family: 5-HT2a ([3H]Ketanserin); conditions: CHO-K1 human recombinant receptor, [3H]Ketanserin 1 nM; read-out: Binding affinity, IC50 (nM), 5-HT2a
T2 construct: purchased Euroscreen/BioSignal Packard Inc

hD3 receptor = target: T3, hD3 receptor (Homo sapiens, UniProt P35462); assay: Dopamine receptor family binding: D3 ([3H]spiperone); conditions: [3H]spiperone 1 nM; read-out: Binding affinity, IC50 (nM), D3
T3 construct: purchased BioSignal Packard Inc., Montreal, Canada

hD4.2 receptor = target: T4, hD4.2 receptor (Homo sapiens, UniProt P21917, DEL265-296); assay: Dopamine receptor family binding: D4 ([3H]YM-09151-2); conditions: [3H]YM-09151-2 0.06 nM; read-out: Binding affinity, IC50 (nM), D4
T4 construct: purchased BioSignal Packard Inc., Montreal, Canada
T4 sequence (P21917 with tags, fused parts or gaps DEL265-296): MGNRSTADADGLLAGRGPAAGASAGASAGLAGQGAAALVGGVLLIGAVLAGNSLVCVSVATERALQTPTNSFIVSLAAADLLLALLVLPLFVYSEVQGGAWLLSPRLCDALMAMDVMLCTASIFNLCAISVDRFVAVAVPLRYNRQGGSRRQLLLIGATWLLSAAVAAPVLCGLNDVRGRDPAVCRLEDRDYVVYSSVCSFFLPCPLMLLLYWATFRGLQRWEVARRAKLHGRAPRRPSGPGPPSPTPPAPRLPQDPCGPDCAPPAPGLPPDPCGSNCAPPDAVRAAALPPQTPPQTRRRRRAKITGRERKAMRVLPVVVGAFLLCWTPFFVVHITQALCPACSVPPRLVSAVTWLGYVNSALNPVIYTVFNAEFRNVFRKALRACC
Procedure: as §1, §2

5-HT2c = target: T5, 5-HT2c (Homo sapiens, UniProt P28335); assay: Radioligand binding, 5-HT receptor family: 5-HT2c ([3H]Mesulergine); conditions: CHO-K1 human recombinant receptor, [3H]Mesulergine 1 nM; read-out: Binding affinity, IC50 (nM), 5-HT2c
T5 construct: purchased Euroscreen/BioSignal Packard Inc
T5 sequence (P28335 33-458): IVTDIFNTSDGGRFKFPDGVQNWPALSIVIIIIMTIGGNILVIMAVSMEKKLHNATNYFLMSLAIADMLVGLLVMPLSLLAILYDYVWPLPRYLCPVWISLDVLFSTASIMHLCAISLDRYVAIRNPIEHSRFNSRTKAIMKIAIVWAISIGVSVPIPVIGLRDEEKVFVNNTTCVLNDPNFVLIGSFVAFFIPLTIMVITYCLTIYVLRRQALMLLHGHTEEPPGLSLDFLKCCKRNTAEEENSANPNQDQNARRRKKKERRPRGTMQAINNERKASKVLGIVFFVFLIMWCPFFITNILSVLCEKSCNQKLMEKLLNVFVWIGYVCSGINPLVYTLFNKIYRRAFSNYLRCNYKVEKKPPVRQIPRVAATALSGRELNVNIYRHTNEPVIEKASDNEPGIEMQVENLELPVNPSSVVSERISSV

5-HT7 = target: T6, 5-HT7 (Homo sapiens, UniProt P34969); assay: Radioligand binding, 5-HT receptor family: 5-HT7 ([3H]LSD); conditions: CHO-K1 human recombinant receptor, [3H]LSD 3 nM; read-out: Binding affinity, IC50 (nM), 5-HT7
T6 construct: purchased Euroscreen/BioSignal Packard Inc
Procedure: Radioligand bindings were performed according to the test method provided by the supplier of receptor membrane (Euroscreen/BioSignal Packard Inc.). The detailed assay conditions and the results were shown in the following Table 3 and Table 4, respectively.

5-HT1a = target: T7, 5-HT1a (Homo sapiens, UniProt P08908); assay: Radioligand binding, 5-HT receptor family: 5-HT1a ([3H]8-OH-DPAT); conditions: CHO-K1 human recombinant receptor, [3H]8-OH-DPAT 0.5 nM; read-out: Binding affinity, IC50 (nM), 5-HT1a
T7 construct: purchased Euroscreen/BioSignal Packard Inc
T7 sequence (P08908 1-422): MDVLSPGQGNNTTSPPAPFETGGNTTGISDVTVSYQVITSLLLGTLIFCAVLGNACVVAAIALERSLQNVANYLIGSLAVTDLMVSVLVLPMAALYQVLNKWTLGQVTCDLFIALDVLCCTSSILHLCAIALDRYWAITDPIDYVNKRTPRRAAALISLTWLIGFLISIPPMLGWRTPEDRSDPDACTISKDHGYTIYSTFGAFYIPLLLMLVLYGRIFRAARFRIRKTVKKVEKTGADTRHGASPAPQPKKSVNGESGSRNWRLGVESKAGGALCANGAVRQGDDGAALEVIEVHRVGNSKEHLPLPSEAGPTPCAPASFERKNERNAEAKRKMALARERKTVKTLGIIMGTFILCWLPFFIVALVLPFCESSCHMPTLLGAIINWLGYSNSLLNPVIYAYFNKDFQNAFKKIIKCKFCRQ

rats [3] = conditions: cited from earlier work; remark: listed apart in the source
rats [4] = assay: Apomorphine-induced disruption of prepulse inhibition (PPI) of acoustic startle; conditions: for reversal of disruption of PPI by apomorphine: pretreatment i.p. 30 min before apomorphine 2 mg/kg
[5] = frontal cortex and dorsal hippocampus; cited from earlier work
5-HT6 receptors [6] = target: T8, 5-HT6 receptors (Homo sapiens, UniProt P50406); conditions: human 5-HT6 receptors, Glennon et al.; cited from earlier work
[7] = background art; cited from earlier work
5-HT6 receptors [8] = target: T8, 5-HT6 receptors; conditions: antipsychotics, Roth et al. 1994; cited from earlier work
mice = assay: Rotarod deficit; conditions: mouse, in vivo
Procedure: The mouse was placed on a 1 inch diameter knurled plastic rod rotating at 6 rpm (Ugo-Basile, Milano, Italy), and the rotarod deficit (%) was obtained by counting the number of animals fallen from the rotating rod within 1 min (Dunham et al., 1957) at 30, 60, 90 and 120 min after the injection of test compound.

[9] = Binding affinity, 5-HT6, Table 4
[10] = binding affinity to the 5-HT6 receptor, Table 2, 1.87 nM [3H]LSD, cloned human receptor membranes from Sf21 cells, 37° C. 60 min

Chain of D1 (P21728 whole entry): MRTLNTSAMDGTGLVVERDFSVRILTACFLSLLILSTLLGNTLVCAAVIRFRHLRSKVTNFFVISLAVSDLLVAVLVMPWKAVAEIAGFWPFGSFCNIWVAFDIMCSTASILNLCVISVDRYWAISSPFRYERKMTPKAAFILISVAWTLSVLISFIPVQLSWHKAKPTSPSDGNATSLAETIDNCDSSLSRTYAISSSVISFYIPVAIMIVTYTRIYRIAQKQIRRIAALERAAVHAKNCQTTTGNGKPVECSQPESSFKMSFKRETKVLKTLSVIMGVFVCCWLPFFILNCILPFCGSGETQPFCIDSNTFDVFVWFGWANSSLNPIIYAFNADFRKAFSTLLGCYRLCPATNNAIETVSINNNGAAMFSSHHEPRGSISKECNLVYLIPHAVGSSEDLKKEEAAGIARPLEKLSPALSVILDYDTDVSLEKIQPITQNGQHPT
T1 sequence (P14416 whole entry): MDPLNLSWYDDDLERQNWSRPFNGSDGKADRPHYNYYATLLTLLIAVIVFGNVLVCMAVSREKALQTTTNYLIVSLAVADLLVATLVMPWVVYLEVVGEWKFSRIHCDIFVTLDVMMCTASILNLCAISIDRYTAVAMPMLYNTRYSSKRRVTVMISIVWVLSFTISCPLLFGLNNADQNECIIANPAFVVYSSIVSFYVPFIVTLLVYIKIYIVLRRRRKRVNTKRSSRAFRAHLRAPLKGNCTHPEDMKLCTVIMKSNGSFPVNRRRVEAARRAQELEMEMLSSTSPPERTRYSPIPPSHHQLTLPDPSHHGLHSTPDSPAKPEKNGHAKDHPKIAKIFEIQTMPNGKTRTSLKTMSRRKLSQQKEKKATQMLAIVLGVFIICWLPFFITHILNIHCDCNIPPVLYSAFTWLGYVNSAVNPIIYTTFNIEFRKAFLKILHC
T6 sequence (P34969 whole entry): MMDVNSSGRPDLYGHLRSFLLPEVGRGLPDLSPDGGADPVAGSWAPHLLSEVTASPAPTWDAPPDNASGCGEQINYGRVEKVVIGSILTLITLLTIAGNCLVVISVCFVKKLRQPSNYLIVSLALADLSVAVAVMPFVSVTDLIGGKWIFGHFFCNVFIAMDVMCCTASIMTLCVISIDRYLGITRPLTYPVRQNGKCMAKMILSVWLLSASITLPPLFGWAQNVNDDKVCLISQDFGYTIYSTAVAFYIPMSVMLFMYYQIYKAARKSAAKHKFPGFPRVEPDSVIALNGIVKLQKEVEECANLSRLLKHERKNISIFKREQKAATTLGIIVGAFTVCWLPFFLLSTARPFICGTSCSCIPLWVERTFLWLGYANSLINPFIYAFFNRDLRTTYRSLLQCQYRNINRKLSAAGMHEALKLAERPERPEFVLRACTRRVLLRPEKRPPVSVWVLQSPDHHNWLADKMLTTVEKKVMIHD
T2 sequence (P28223 whole entry): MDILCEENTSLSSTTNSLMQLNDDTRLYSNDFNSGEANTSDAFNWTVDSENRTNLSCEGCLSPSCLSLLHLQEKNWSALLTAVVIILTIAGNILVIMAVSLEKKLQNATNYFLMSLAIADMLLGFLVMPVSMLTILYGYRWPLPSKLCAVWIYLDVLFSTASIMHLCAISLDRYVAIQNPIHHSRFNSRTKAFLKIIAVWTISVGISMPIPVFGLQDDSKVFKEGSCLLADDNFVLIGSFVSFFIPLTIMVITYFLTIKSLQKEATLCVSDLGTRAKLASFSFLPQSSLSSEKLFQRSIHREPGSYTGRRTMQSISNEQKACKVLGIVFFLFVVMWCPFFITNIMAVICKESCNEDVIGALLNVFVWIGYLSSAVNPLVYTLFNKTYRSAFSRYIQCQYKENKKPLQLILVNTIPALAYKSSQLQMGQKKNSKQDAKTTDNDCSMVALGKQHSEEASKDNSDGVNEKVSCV
Chain of Human serotonin 5-HT6 receptor (P50406 whole entry): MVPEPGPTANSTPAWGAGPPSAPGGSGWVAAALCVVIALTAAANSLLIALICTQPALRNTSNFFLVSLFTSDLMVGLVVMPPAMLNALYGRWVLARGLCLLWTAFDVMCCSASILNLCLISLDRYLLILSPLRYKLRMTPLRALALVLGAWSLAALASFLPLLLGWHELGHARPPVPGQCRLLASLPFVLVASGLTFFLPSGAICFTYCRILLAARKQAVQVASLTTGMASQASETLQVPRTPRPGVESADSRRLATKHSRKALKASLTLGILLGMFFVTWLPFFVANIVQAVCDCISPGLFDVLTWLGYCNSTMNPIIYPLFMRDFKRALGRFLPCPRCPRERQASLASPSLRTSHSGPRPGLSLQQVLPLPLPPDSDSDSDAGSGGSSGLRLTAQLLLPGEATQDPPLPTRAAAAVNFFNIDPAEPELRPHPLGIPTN
T8 sequence (P50406 whole entry): as above
T3 sequence (P35462 whole entry): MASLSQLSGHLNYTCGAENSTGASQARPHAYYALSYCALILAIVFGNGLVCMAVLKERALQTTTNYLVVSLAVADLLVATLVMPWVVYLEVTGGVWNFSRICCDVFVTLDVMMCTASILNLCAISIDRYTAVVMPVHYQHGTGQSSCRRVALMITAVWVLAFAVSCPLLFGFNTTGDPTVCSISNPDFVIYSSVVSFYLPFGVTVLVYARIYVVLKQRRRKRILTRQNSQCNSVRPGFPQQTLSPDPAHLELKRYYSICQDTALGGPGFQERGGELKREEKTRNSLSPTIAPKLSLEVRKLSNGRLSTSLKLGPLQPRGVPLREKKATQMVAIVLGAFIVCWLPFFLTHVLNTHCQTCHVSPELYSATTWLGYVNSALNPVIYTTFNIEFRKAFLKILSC

| SMILES | IC50 (hD2L receptor) | IC50 (D1) | IC50 [2, 9] | IC50 [2, 10] | IC50 (5-HT2a) | IC50 (hD3 receptor) | IC50 (hD4.2 receptor) | IC50 (5-HT2c) | IC50 (5-HT7) | melting point | IC50 (5-HT1a) | further results |
| --- | --- | --- | --- | --- | --- | --- | --- | --- | --- | --- | --- | --- |
| CNc1cc(NS(=O)(=O)c2ccc(N)cc2)nc(NC)n1 [Ro 04-6790] |  |  |  |  |  |  |  |  |  |  |  | food intake (rats [1]): decreased food intake; anticonvulsant activity (rat): possess anticonvulsant activity |
| COc1cccc(CN2C(=O)N(Cc3ccccc3)c3cc(Cl)cc(N4CCN(C)CC4)c3S2(=O)=O)c1 [Example 17, 4-Benzyl-6-chloro-2-(3-methoxy-benzyl)-8-(4-methyl-piperazin-1-yl)-1,1-dioxo-1,4-dihydro-2H-1λ^6-benzo[1,2,4]thiadiazin-3-one] | 4860 nM | 4730 nM | 10.9 nM | 10.6 nM | 318 nM | 537 nM | > 10000 nM | 899 nM | > 10000 nM | 85 to 86 °C | 1950 nM |  |
| COc1ccc(NS(=O)(=O)c2sc3ccc(Cl)cc3c2C)cc1N1CCNCC1 [SB-271046, reference compound] |  |  |  |  |  |  |  |  |  |  |  | retention of a previously learned task in water maze (rats [3]): significant improvement; reversal of disruption of PPI by apomorphine (rats [4]; rats, i.p.): did not reverse; extracellular glutamate levels [5]: increased extracellular glutamate levels in frontal cortex and dorsal hippocampus by several fold; anticonvulsant activity (rat): possess anticonvulsant activity |
| COc1ccc2c(c1)c(CCN(C)C)cn2S(=O)(=O)c1ccccc1 [MS-245] |  |  |  |  |  |  |  |  |  |  |  | pA2, antagonist (5-HT6 receptors [6]): 8.88 |
| COc1ccc(S(=O)(=O)Nc2cc(Br)cc(F)c2Br)cc1N1CCNCC1 [SB-357134] |  |  |  |  |  |  |  |  |  |  |  | retention of a previously learned task in water maze (rats [3]): significant improvement; seizure threshold (rat maximal electroseizure threshold) (rat; oral administration): potent and dose-dependent increase; bioavailability (in words) [7]: excellent oral bioavailability; blood clearance (in words) [7]: low clearance rate |
| COc1cccc(CN2C(=O)N(Cc3ccccc3)c3cc(Cl)cc(N4CCNCC4)c3S2(=O)=O)c1 [Example 52, 4-Benzyl-6-chloro-2-(3-methoxy-benzyl)-1,1-dioxo-8-piperazin-1-yl-1,4-dihydro-2H-1λ^6-benzo[1,2,4]thiadiazin-3-one] | 3220 nM | 3140 nM | 2 nM | 5.8 nM | 1000 nM | 531 nM | > 10000 nM | 1350 nM | 6780 nM | 98 to 100 °C | 1860 nM |  |
| CN(C)CCCN1c2ccccc2Sc2ccc(Cl)cc21 [chlorpromazine] |  |  |  |  |  |  |  |  |  |  |  | binding affinity at 5-HT6 receptors (in words) (5-HT6 receptors [8]): high affinity |
| Cc1cc(C)cc(CCCN2C(=O)N(Cc3ccccc3)c3cc(Cl)cc(N4CCNCC4)c3S2(=O)=O)c1 [Example 66, 4-Benzyl-6-chloro-2-[3-(3,5-dimethyl-phenyl)-propyl]-1,1-dioxo-8-piperazin-1-yl-1,4-dihydro-2H-1λ^6-benzo[1,2,4]thiadiazin-3-one] | 1640 nM | 1180 nM | 3.8 nM | 3.8 nM | 710 nM | 488 nM | > 10000 nM | 498 nM | 4530 nM | 226 to 228 °C | 1840 nM |  |
| CN(C)CC/C=C1/c2ccccc2Sc2ccc(Cl)cc21 [chlorprothixene] |  |  |  |  |  |  |  |  |  |  |  | binding affinity at 5-HT6 receptors (in words) (5-HT6 receptors [8]): high affinity |
| O=C1N(Cc2ccccc2)c2cc(Cl)cc(N3CCNCC3)c2S(=O)(=O)N1Cc1cccc(O)c1 [Example 54, 4-Benzyl-6-chloro-2-(3-hydroxy-benzyl)-1,1-dioxo-8-piperazin-1-yl-1,4-dihydro-2H-1λ^6-benzo[1,2,4]thiadiazin-3-one] | 2280 nM | 4100 nM | 5.8 nM | 1 nM | 1150 nM | 804 nM | > 10000 nM | 1800 nM | > 10000 nM | 230 to 231 °C | 621 nM |  |
| CN1CCN(c2cc(Cl)cc3c2S(=O)(=O)N(Cc2ccccc2)C(=O)N3Cc2ccccc2)CC1 [Example 1, 2,4-Dibenzyl-6-chloro-8-(4-methyl-piperazin-1-yl)-1,1-dioxo-1,4-dihydro-2H-1λ^6-benzo[1,2,4]thiadiazin-3-one] | 5810 nM | 3050 nM | 1.9 nM | 1.9 nM | 354 nM | 633 nM | > 10000 nM | 785 nM | 6580 nM | 100 to 101 °C | 997 nM | effect on PPI of compound alone vs vehicle control (rats [4]; rats, 2.5, 5, 10 & 20 mg/kg, i.p., without apomorphine): no significant effect; mean startle amplitude vs apomorphine control group (rats [4]; rats, administered 30 min before apomorphine): no significant differences; reversal of disruption of PPI by apomorphine (rats [4]; rats, i.p.): reversed significantly; rotarod ataxia / rotarod deficit (in words) (mice): did not show any rotarod ataxia; median neurotoxic dose (TD50), rotarod (mice; ip): more than 300 □/□ |
